Reference: patent US20020072081A1, “Geranylgeranyl transferase inhibitor screening assay” (priority 2000, published 2002)

Biological target: T1, GGTase-I (Rattus norvegicus, UniProt P53610)
T1 construct: endogenous in cells; host or cells: H-ras transformed Rat1 fibroblast cell line (Hras2b/rat1)
Assay: Cell Radiotracer Assay of Geranylgeranyl Transferase Inhibitor (CRAGGTI), radioligand binding to living cells
Conditions: H-ras transformed Rat1 fibroblast cell line; specific binding, non-specific determined with 1000-fold molar excess of unlabeled Compound A; read-out: concentration of [^3H] Compound A that achieves half maximal binding to cells (apparent Kd)
Protocol: In an embodiment of the instant invention, the assay involves growing a cell line in 24-well cell culture plates as an adherent population of cells until the cell culture is nearly confluent. The concentration of radioligand required to achieve half-maximal specific binding to cells is determined by adding the radioligand at varying concentrations to cell culture media, and incubating this mixture with the cells for a defined period of time. To determine the level of non-specific binding of the radioligand, excess unlabeled GGTase-I inhibitor (unlabeled radioligand) is added to some of the wells. After incubation, the unbound radioligand is removed from the cells. […] The cell layer is then solubilized and analyzed. Having determined the concentration of radioligand that achieves half maximal binding to cells, one can determine the relative IC50s of test compounds by incubating varying concentrations of test compounds with the appropriate concentration of radioligand, and perform the cell incubations, washes, and solubilization steps as described. […]
Briefly, the method involves growing a cell line in 24-well cell culture plates as an adherent population of cells until the cell culture is nearly confluent. […] Compound A required to achieve half-maximal specific binding to cells is determined by adding [^3H] […] Having determined the concentration of [^3H] […]

A Kd of ~300 pM was found for `[3H]C(O)(CN1CCN(Cc2cncn2Cc2ccc(C#N)cc2)CC1=O)C12CC3CC(CC(C3)C1)C2` (stereo not shown) [[^3H] Compound A, [^3H]-R/S 1-(4-Cyanobenzyl)-5-[1-(2-hydroxy-2-(adamant-1-yl)ethyl)-2-oxo-piperazin-4-vl-methyl]imidazole] in this work.
